Assay [1] addresses T1, endogenous cellular BACE2 (Rattus norvegicus, UniProt Q6IE75).
T1 construct: endogenous cellular BACE2 in the Ins1e rat cell line; endogenous in cells; host or cells: INS-TMEM27 (INS1e-derived rat insulinoma cell line with doxycycline-inducible full-length human TMEM27)
T1 sequence (Q6IE75 63-514): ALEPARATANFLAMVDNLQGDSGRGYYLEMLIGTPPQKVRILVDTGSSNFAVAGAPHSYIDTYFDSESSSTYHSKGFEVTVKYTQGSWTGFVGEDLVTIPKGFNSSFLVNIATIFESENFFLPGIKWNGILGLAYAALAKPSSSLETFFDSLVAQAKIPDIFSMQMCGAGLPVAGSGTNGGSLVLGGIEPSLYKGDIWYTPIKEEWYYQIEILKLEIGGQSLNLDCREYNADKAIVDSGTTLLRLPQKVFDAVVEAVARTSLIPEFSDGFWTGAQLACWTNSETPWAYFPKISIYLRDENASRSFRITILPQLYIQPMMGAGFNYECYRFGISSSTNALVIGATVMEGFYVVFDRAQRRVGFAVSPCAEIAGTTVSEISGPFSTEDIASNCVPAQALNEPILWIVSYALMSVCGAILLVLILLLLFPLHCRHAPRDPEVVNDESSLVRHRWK
As to the kind of experiment: Assay for BACE inhibition by measuring cellular TMEM27 cleavage. The assay is classed as cell-based. To be noted: INS-TMEM27 (INS1e-derived) cells, shed human TMEM27 in supernatant by ELISA. The source says: Assay for BACE Inhibition by Measuring Cellular TMEM27 Cleavage:
The assay uses the principle of inhibition of human TMEM27 cleavage by endogenous cellular BACE2 in the Ins1e rat cell line and shedding from the cell surface into the culture medium, followed by detection in an ELISA assay. Inhibition of BACE2 prevents the cleavage and shedding in a dose-dependent manner.
The stable cell line “INS-TMEM27” represents an INS1e-derived cell line with inducible expression (using the TetOn system) of full-length hTMEM27 in a doxycycline-dependent manner. The cells are cultured throughout the experiment in RPMI1640+ Glutamax (Invitrogen) Penicillin/Streptomycin, 10% Fetal bovine serum, […], […], 100 micrograms/ml G418 and 100 microgram/ml hygromycin and are grown inadherent culture at 37° C. in a standard CO2 cell culture incubator.
INS-TMEM27 cells are seeded in 96-well plates. After 2 days in culture, BACE2 inhibitor is added in a range of concentrations as required by the assay and after a further two hours, doxycycline is added to a final concentration of 500 ng/ml. The cells are incubated for a further 46 hours and the supernatant harvested for detection of shed TMEM27.
An ELISA assay (using a pair of mouse anti-human-TMEM27 antibodies, raised against the extracellular domain of TMEM27) is used for detection of TMEM27 in the culture medium. An EC50 for BACE2 inhibition is calculated using the ELISA readout for each inhibitor concentration with standard curve-fitting software such as XLFit for the Excel spreadsheet program.

The subject of assay [2] is Aβ40. As to the kind of experiment: Cellular Aβ-lowering assay. Format: cell-based. To be noted: HEK293 cells stably expressing human APP695, Aβ40 in supernatant by ELISA after 18-20 hrs; read-out: Cellular assay Abeta40 IC50. As for the experimental part: Cellular Aβ-Lowering Assay:
Human HEK293 cells which are stably transfected with a vector expressing a cDNA of the human APP wt gene (APP695) were used to assess the potency of the compounds in a cellular assay. The cells were seeded in 96-well microtiter plates in cell culture medium (Iscove, plus 10% (v/v) fetal bovine serum, glutamine, penicillin/streptomycin) to about 80% confluence and the compounds were added at a 10× concentration in 1/10 volume of medium without FCS containing 8% DMSO (final concentration of DMSO was kept at 0.8% v/v). After 18-20 hrs incubation at 37° C. and 5% CO2 in a humidified incubator the culture supernatant was harvested for the determination of Aβ40 concentrations. 96well ELISA plates (e.g., Nunc MaxiSorb) were coated with monoclonal antibody which specifically recognize the C-terminal end of Aβ40 (Brockhaus et al., NeuroReport 9, 1481-1486; 1998). After blocking of non-specific binding sites with e.g. 1% BSA and washing, the culture supernatants were added in suitable dilutions together with a horseradish peroxidase-coupled Aβ detection antibody (e.g., antibody 4G8, Senetek, Maryland Heights, Mo.) and incubated for 5 to 7 hrs. Subsequently the wells of the microtiter plate were washed extensively with Tris-buffered saline containing 0.05% Tween 20 and the assay was developed with tetramethylbenzidine/H2O2 in citric acid buffer. After stopping the reaction with one volume 1 N H2SO4 the reaction was measured in an ELISA reader at 450 nm wavelength. The concentrations of Aβ in the culture supernatants were calculated from a standard curve obtained with known amounts of pure Aβ peptide.

The text below walks through data of US8673894B2 (Hoffmann-La Roche Inc., priority 2010, dated 2014).

Structures can show the parent of a compound that is named as a salt.

On to `C[C@]1(c2cc(NC(=O)c3ccc(C#N)cn3)ccc2F)N=C(N)COCC1(F)F` [Example 30, (R)-N-(3-(3-amino-6,6-difluoro-5-methyl-2,5,6,7-tetrahydro-1,4-oxazepin-5-yl)-4-fluorophenyl)-5-cyanopicolinamide formate], for which the values for the IC50 in assay [1] and in assay [2] were 43 nM and 2.1 nM, respectively.

As for `Cc1cc(Cl)cnc1C(=O)Nc1ccc(F)c([C@@]2(C)N=C(N)COCC2(F)F)c1` [Example 31, (R)-N-(3-(3-amino-6,6-difluoro-5-methyl-2,5,6,7-tetrahydro-1,4-oxazepin-5-yl)-4-fluorophenyl)-5-chloro-3-methylpicolinamide formate], the values for the IC50 in assay [1] and in assay [2] were 2.6 nM and 1 nM, respectively.

For `C[C@]1(c2cc(NC(=O)c3ncc(F)cc3F)ccc2F)N=C(N)COCC1(F)F` [Example 32, (R)-N-(3-(3-amino-6,6-difluoro-5-methyl-2,5,6,7-tetrahydro-1,4-oxazepin-5-yl)-4-fluorophenyl)-3,5-difluoropicolinamide formate], the IC50 came to 4.4 nM in assay [1] and 4.5 nM in assay [2].

For `C[C@]1(c2cc(NC(=O)C3(C(F)(F)F)CC3)ccc2F)N=C(N)COCC1(F)F` [Example 33, (R)-N-(3-(3-amino-6,6-difluoro-5-methyl-2,5,6,7-tetrahydro-1,4-oxazepin-5-yl)-4-fluorophenyl)-1-(trifluoromethyl)cyclopropanecarboxamide formate], the figures for the IC50 in assay [1] and in assay [2] were 240 nM and 90 nM, respectively.

As to `C[C@]1(c2cc(NC(=O)C3CC3(F)F)ccc2F)N=C(N)COCC1(F)F` (stereo partly drawn) [Example 34, N-(3-((R)-3-amino-6,6-difluoro-5-methyl-2,5,6,7-tetrahydro-1,4-oxazepin-5-yl)-4-fluorophenyl)-2,2-difluorocyclopropanecarboxamide formate], the results for the IC50 in assay [1] and in assay [2] were 380 nM and 76 nM, respectively.

As to `C[C@]1(c2cc(NC(=O)c3ccccn3)ccc2F)N=C(N)COCC1(F)F` [Example 35, (R)-N-(3-(3-amino-6,6-difluoro-5-methyl-2,5,6,7-tetrahydro-1,4-oxazepin-5-yl)-4-fluorophenyl)picolinamide formate], the values for the IC50 in assay [1] and in assay [2] were 29 nM and 14 nM, respectively.

Take `C[C@]1(c2cc(NC(=O)c3ncccc3Cl)ccc2F)N=C(N)COCC1(F)F` [Example 36, (R)-N-(3-(3-amino-6,6-difluoro-5-methyl-2,5,6,7-tetrahydro-1,4-oxazepin-5-yl)-4-fluorophenyl)-3-chloropicolinamide formate]: the IC50 worked out at 8.4 nM in assay [1] and 38 nM in assay [2].

Take `C[C@]1(c2cc(NC(=O)c3ncccc3C(F)(F)F)ccc2F)N=C(N)COCC1(F)F` [Example 37, (R)-N-(3-(3-amino-6,6-difluoro-5-methyl-2,5,6,7-tetrahydro-1,4-oxazepin-5-yl)-4-fluorophenyl)-3-(trifluoromethyl)picolinamide formate]: the IC50 in assay [1] was found to be 25 nM; in assay [2], 54 nM.

In the case of `C[C@]1(c2cc(NC(=O)c3cnc(Cl)cn3)ccc2F)N=C(N)COCC1(F)F` [Example 38, (R)-N-(3-(3-amino-6,6-difluoro-5-methyl-2,5,6,7-tetrahydro-1,4-oxazepin-5-yl)-4-fluorophenyl)-5-chloropyrazine-2-carboxamide formate], the results for the IC50 in assay [1] and in assay [2] were 170 nM and 55 nM, respectively.

For `C[C@]1(c2cc(NC(=O)c3ncc(Cl)cc3Cl)ccc2F)N=C(N)COCC1(F)F` [Example 39, (R)-N-(3-(3-amino-6,6-difluoro-5-methyl-2,5,6,7-tetrahydro-1,4-oxazepin-5-yl)-4-fluorophenyl)-3,5-dichloropicolinamide formate], the IC50 in assay [1] turned out to be 3 nM; in assay [2] it was 2.6 nM.

As to `C[C@]1(c2cc(NC(=O)c3ncc(F)cc3Cl)ccc2F)N=C(N)COCC1(F)F` [Example 40, (R)-N-(3-(3-amino-6,6-difluoro-5-methyl-2,5,6,7-tetrahydro-1,4-oxazepin-5-yl)-4-fluorophenyl)-3-chloro-5-fluoropicolinamide formate], the IC50 in assay [1] amounted to 6.2 nM; in assay [2] it was 5.9 nM.

For the compound `Cn1cc(Cl)c(C(=O)Nc2ccc(F)c([C@@]3(C)N=C(N)COCC3(F)F)c2)n1` [Example 41, (R)-N-(3-(3-amino-6,6-difluoro-5-methyl-2,5,6,7-tetrahydro-1,4-oxazepin-5-yl)-4-fluorophenyl)-4-chloro-1-methyl-1H-pyrazole-3-carboxamide formate], the values for the IC50 in assay [1] and in assay [2] were 3 nM and 7.2 nM, respectively.

For the compound `Cc1nc(C(=O)Nc2ccc(F)c([C@@]3(C)N=C(N)COCC3(F)F)c2)co1` [Example 42, (R)-N-(3-(3-amino-6,6-difluoro-5-methyl-2,5,6,7-tetrahydro-1,4-oxazepin-5-yl)-4-fluorophenyl)-2-methyloxazole-4-carboxamide formate], the figures for the IC50 in assay [1] and in assay [2] were 2.4 nM and 7.4 nM, respectively.

Turning to `Cn1ccc(C(=O)Nc2ccc(F)c([C@@]3(C)N=C(N)COCC3(F)F)c2)n1` [Example 43, (R)-N-(3-(3-amino-6,6-difluoro-5-methyl-2,5,6,7-tetrahydro-1,4-oxazepin-5-yl)-4-fluorophenyl)-1-methyl-1H-pyrazole-3-carboxamide formate], the IC50 is 4.7 nM in assay [1] and 23 nM in assay [2].

For `C[C@]1(c2cc(NC(=O)c3ccn(C(F)F)n3)ccc2F)N=C(N)COCC1(F)F` [Example 44, (R)-N-(3-(3-amino-6,6-difluoro-5-methyl-2,5,6,7-tetrahydro-1,4-oxazepin-5-yl)-4-fluorophenyl)-1-(difluoromethyl)-1H-pyrazole-3-carboxamide formate], the results for the IC50 in assay [1] and in assay [2] were 1.2 nM and 2.4 nM, respectively.

In the case of `C[C@]1(c2cc(NC(=O)c3ncc(Cl)cn3)ccc2F)N=C(N)COCC1(F)F` [Example 46, 5-Chloro-pyrimidine-2-carboxylic acid [3-((R)-3-amino-6,6-difluoro-5-methyl-2,5,6,7-tetrahydro-[1,4]oxazepin-5-yl)-4-fluoro-phenyl]-amide], the IC50 in assay [1] was found to be 6.5 nM; in assay [2], 1.7 nM.

On to `CC1(C)OCC[C@@](C)(c2cc(NC(=O)c3ccc(Cl)cn3)ccc2F)N=C1N` [Example 47, 5-Chloro-pyridine-2-carboxylic acid [3-((S)-3-amino-2,2,5-trimethyl-2,5,6,7-tetrahydro-[1,4]oxazepin-5-yl)-4-fluoro-phenyl]-amide], for which the figures for the IC50 in assay [1] and in assay [2] were 46 nM and 58 nM, respectively.

For the compound `C[C@]1(c2cc(NC(=O)c3ccc(OC(F)F)cn3)ccc2F)N=C(N)COCC1(F)F` [Example 48, (R)-N-(3-(3-amino-6,6-difluoro-5-methyl-2,5,6,7-tetrahydro-1,4-oxazepin-5-yl)-4-fluorophenyl)-5-(difluoromethoxy)picolinamide formate], the half-maximal inhibitory concentration (IC50) in assay [1] came out at 88 nM; in assay [2], 1 nM.
